Laboratory results taken from patent US7708999B2, “Remedies for arthritis” (Kyowa Hakko Kirin Co., Ltd., priority 2001, dated 2010).

How the values were obtained:
[1] = test system: rat adjuvant arthritis model; experiment: Rat adjuvant arthritis model; format: in vivo; conditions: for Bone destruction score / Bone destruction score (% inhibition): Table 2; for Bone destruction score: soft X-ray of calcaneus, adjuvant-untreated paw, day 21, maximum 5, mean ± standard error, oral comparators; for Bone destruction score (% inhibition) / inhibition of the increase in paw volume, adjuvant-untreated paw: vs solvent group; for inhibition of the increase in paw volume, adjuvant-untreated paw: day 21, oral, 1 mL per 100 g: sodium diclofenac 0.3 mg/mL, methotrexate 0.01 mg/mL, prednisolone 0.3 mg/mL; for inhibition of the increase (decrease) in amount of glycosaminoglycan in urine / inhibition of the increase (decrease) in amount of deoxypyridinoline in urine: urine day 20 to 21, oral comparators vs solvent group; for inhibition of the increase (decrease) in amount of glycosaminoglycan in urine: diclofenac and prednisolone not significant; for inhibition of the increase (decrease) in amount of deoxypyridinoline in urine: methotrexate and prednisolone not significant
Protocol: The rat adjuvant arthritis model was performed in the following manner according to the method of Pearson et al. (Pearson CM. et al., Arthritis Rheum., 5, 654-658, 1962) using Lewis rats (female, 8 weeks old, Japan Charles River).
Mycobacterium butyricum (manufactured by Difco) was suspended in a liquid paraffin (manufactured by Wako Pure Chemical Industries, Ltd.) to a final concentration of 6 mg/mL, and sterilized with a autoclave. The resulting solution was intradermally injected into the rat right hind pad in an amount of 100 μL for sensitization. One group consisted of 8 to 10 rats. Anti-FGF-8 neutralizing antibody KM1334 was dissolved in saline to a final concentration of 2 mg/mL. The solution was intraperitoneally administered to a KM1334 administrated group once a day at a dose of 0.5 mL per 100 g of the body weight for each rat on the sensitization day of the rat adjuvant arthritis model and on days 3, 7, 10, 14 and 17 from the sensitization. To saline administrated group, only saline was intraperitoneally administered instead of the anti-FGF-8 neutralizing antibody KM1334 solution. Further, sodium diclofenac, an antiinflammatory agent, was dissolved in a 0.5 w/v % methyl cellulose solution to a final concentration of 0.3 mg/mL, and the solution was orally administered to a sodium diclofenac administrated group as a positive control once a day at a dose of 1 mL per 100 g of the body weight on days 4, 7 to 11 and 14 to 18 from the adjuvant sensitization day. 50 mg of methotrexate® for injection (manufactured by Wyeth Japan) as a metabolic antagonist was dissolved in a 0.5 w/v % methyl cellulose solution to a final concentration of 0.01 mg/mL, and the solution was administered to a methotrexate administrated group in the same manner as in the sodium diclofenac administrated group. Prednisolone (manufactured by Sigma-Aldrich), a steroidal agent, was suspended in a 0.5 w/v % methyl cellulose solution to a final concentration of 0.3 mg/mL, and the suspension was administered to a prednisolone administrated group in the same manner as in the sodium diclofenac administrated group. Further, a 0.5 w/v % methyl cellulose solution alone was orally administered to a solvent administrated group in the same manner. An untreated group was used, and it was not subjected to sensitization with Mycobacterium butyricum and administration of an agent. The volumes of the adjuvant-treated paw and the adjuvant-untreated paw were measured as time goes by using a device for measuring edemas of rat hind paw (TK-101, manufactured by Unicom).
Using urine collected for 24 hours at day 20 and day 21 after the sensitization, the amounts of glycosaminoglycan, deoxypyridinoline, hydroxyproline and creatinine in urine were measured. The amount of glycosaminoglycan in urine was measured by the DMMB method described in Example 1. The amount of hydroxyproline in urine was measured by the method of Ikeda et al. (Ikeda Shingo et al., Tokyo Eiken Nenpo, 36 277-282, 1985). That is, 0.8 mL of hydrochloric acid for amino acid analysis (manufactured by Kanto Kagaku) was added to 0.8 mL of urine to hydrolyze at 110° C. for 15 hours. To 0.5 mL of the hydrolyzed sample was added 2 mL of a 1.2 mol/L sodium hydroxide solution for neutralization. 1 mL of isopropanol was added to 0.5 mL of the neutralized sample, and 1 ml of an oxidant solution was added. The mixture was stirred well, and allowed to stand at room temperature for 5 minutes. […]

[2] = target: T1, compound 1 as a partial peptide of FGF-8 (Homo sapiens, UniProt P55075); experiment: FGF-8 binding activity by BIAcore 2000, immobilized biotin-labeled compound 1; conditions: antibody 16.7 μg/mL; FGF-8 peptide immobilized 35 RU
T1 construct: 17; made in house; host or cells: chemical synthesis
T1 sequence (P55075 with tags, fused parts or gaps isoform P55075-3 limits assumed): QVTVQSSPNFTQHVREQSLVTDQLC
Protocol: In order to examine the FGF-8 binding activity of the anti-FGF-8 neutralizing CDR-grafted antibodies obtained in 5. of Reference Example 3, the FGF-8 binding activity of the various anti-FGF-8 neutralizing CDR-grafted antibodies was measured and compared through BIAcore 2000 using compound 1 as a partial peptide of FGF-8 with the C terminal labeled with biotin in the following manner. The anti-FGF-8 neutralizing chimeric antibody KM3034 derived from CHO/DG44 cells obtained in 3. (1) of Reference Example 1 was used as a positive control.
HBS-EP was used as a sample diluent and a buffer during measurement. First, Sensor Chip SA (manufactured by BIACORE) was installed, and 5 μL of compound 1 labeled with biotin which had been adjusted to 0.05 μg/mL was added at a flow rate of 5 μL/min. Then, 5 μL of a 10 mmol/L glycine-hydrochloride solution (pH 1.5) was added twice continuously to wash the tip surface. The immobilization amount of the FGF-8 peptide was 35 RU.
60 μL of each of the antibody solutions was added to an FGF-8 peptide immobilized flow cell at a flow rate of 20 μL/min, and the dissociation reaction was then monitored for 3 minutes. After the dissociation reaction, 20 μL of 10 mmol/L glycine-hydrochloride solution (pH 1.5) was added twice continuously to regenerate the chip surface. This cycle was performed on the antibody solution at various concentrations (from 50 to 1.85 μg/mL) to obtain sensor grams at various concentrations. The sensor grams of the respective antibodies were converted to sensor grams of specific reactions by deduceing a sensor gram obtained using the chimeric antibody KM871 to GD3 as a negative control.

`CN(Cc1cnc2nc(N)nc(N)c2n1)c1ccc(C(=O)N[C@@H](CCC(=O)O)C(=O)O)cc1` [methotrexate] was tested, and the Bone destruction score [1] was 0.9 ± 0.4, the “Bone destruction score (% inhibition)” value [1] was 80% and the “inhibition of the increase in paw volume, adjuvant-untreated paw” value [1] was 90%. The “inhibition of the increase (decrease) in amount of glycosaminoglycan in urine” value [1] was 79% and the “inhibition of the increase (decrease) in amount of deoxypyridinoline in urine” value [1] was 34%.

In the case of `C[C@]12C=CC(=O)C=C1CC[C@@H]1[C@@H]2[C@@H](O)C[C@@]2(C)[C@H]1CC[C@]2(O)C(=O)CO` [prednisolone, Prednisolone], the Bone destruction score [1] is reported as 1.8 ± 0.7, the “Bone destruction score (% inhibition)” value [1] is reported as 61% and the “inhibition of the increase in paw volume, adjuvant-untreated paw” value [1] is reported as 51%. For the same molecule, the “inhibition of the increase (decrease) in amount of glycosaminoglycan in urine” value [1] was 18% and the “inhibition of the increase (decrease) in amount of deoxypyridinoline in urine” value [1] was 38%.

B1: KM3034: anti-FGF-8 neutralizing human chimeric antibody, VH SEQ ID NO. 5, VL SEQ ID NO. 6, human γ1/κ, CHO/DG44 cell-derived (FERM BP-7836) (antibody, listed as Mus musculus, V domains shown)
VH: QVQLQQSGAEVARPGASVKLSCKASGYTFTDYYLNWVKQRSGQGLEWIGEIDPGSDSIYYNENLEGRATLTADKSSSTAYMQLNSLTSEDSAVYFCARYGYSRYDVRFVYWGQGTLVTVST
VL: DVLMTQTPLSLPVSLGDQASISCRSSQSLVHSNGRTYLEWYLQKPGQSPKVLIYKVSNRISGVPDRFSGSGSGTDFTLKISRVEAEDLGVYFCFQGSHVPYTFGGGTKLEIK
With B1 the “binding reaction [resonance signal (RU)]” value [2] was “the highest binding reaction”.

B2: HV0LV4-2/CHO: CHO/DG44 cell-derived anti-FGF-8 neutralizing CDR-grafted antibody, VH HV.0, VL LV.4-2 (SEQ ID NO. 43) (antibody, V domains shown)
VH: QVQLVQSGAEVKKPGASVKVSCKASGYTFTDYYLNWVRQAPGQGLEWMGEIDPGSDSIYYNENLEGRVTITADTSTSTAYMELSSLRSEDTAVYYCARYGYSRYDVRFVYWGQGTLVTVSS
VL: DVVMTQSPLSLPVSLGEPASISCRSSQSLVHSNGRTYLEWYLQKPGQSPQLLIYKVSNRISGVPDRFSGSGSGTDFTLKISRVEAEDVGVYFCFQGSHVPYTFGQGTKVEIK
With B2 the “binding reaction [resonance signal (RU)]” value [2] was “the lower binding reaction”.

B3: HV0LV6/CHO: CHO/DG44 cell-derived anti-FGF-8 neutralizing CDR-grafted antibody, VH HV.0 (SEQ ID NO. 18), VL LV.6 (SEQ ID NO. 21) (antibody, V domains shown)
VH: QVQLVQSGAEVKKPGASVKVSCKASGYTFTDYYLNWVRQAPGQGLEWMGEIDPGSDSIYYNENLEGRVTITADTSTSTAYMELSSLRSEDTAVYYCARYGYSRYDVRFVYWGQGTLVTVSS
VL: DVVMTQSPLSLPVSLGEPASISCRSSQSLVHSNGRTYLEWYLQKPGQSPKVLIYKVSNRISGVPDRFSGSGSGTDFTLKISRVEAEDVGVYFCFQGSHVPYTFGQGTKVEIK
modifications: HV.0, a designed amino acid sequence of VH of an anti-FGF-8 CDR-grafted neutralizing antibody; LV.6, a designed amino acid sequence of VL of an anti-FGF-8 CDR-grafted neutralizing antibody
For B3, the “binding reaction [resonance signal (RU)]” value [2] was “the highest binding reaction”.

B4: HV0LV3-2/CHO: CHO/DG44 cell-derived anti-FGF-8 neutralizing CDR-grafted antibody, VH HV.0, VL LV.3-2 (SEQ ID NO. 45) (antibody, V domains shown)
VH: QVQLVQSGAEVKKPGASVKVSCKASGYTFTDYYLNWVRQAPGQGLEWMGEIDPGSDSIYYNENLEGRVTITADTSTSTAYMELSSLRSEDTAVYYCARYGYSRYDVRFVYWGQGTLVTVSS
VL: DIVMTQSPLSLPVSLGEPASISCRSSQSLVHSNGRTYLEWYLQKPGQSPQLLIYKVSNRISGVPDRFSGSGSGTDFTLKISRVEAEDVGVYFCFQGSHVPYTFGQGTKVEIK
For B4, the “binding reaction [resonance signal (RU)]” value [2] was “the lower binding reaction”.

B5: HV0LV2-2/CHO: CHO/DG44 cell-derived anti-FGF-8 neutralizing CDR-grafted antibody, VH HV.0, VL LV.2-2 (SEQ ID NO. 47) (antibody, V domains shown)
VH: QVQLVQSGAEVKKPGASVKVSCKASGYTFTDYYLNWVRQAPGQGLEWMGEIDPGSDSIYYNENLEGRVTITADTSTSTAYMELSSLRSEDTAVYYCARYGYSRYDVRFVYWGQGTLVTVSS
VL: DVVMTQSPLSLPVTPGEPASISCRSSQSLVHSNGRTYLEWYLQKPGQSPQLLIYKVSNRISGVPDRFSGSGSGTDFTLKISRVEAEDVGVYFCFQGSHVPYTFGQGTKVEIK
B5 was tested, and the “binding reaction [resonance signal (RU)]” value [2] was “the lower binding reaction”.

B6: HV0LV0/CHO: CHO/DG44 cell-derived anti-FGF-8 neutralizing CDR-grafted antibody, VH HV.0, VL LV.0 (antibody, V domains shown)
VH: QVQLVQSGAEVKKPGASVKVSCKASGYTFTDYYLNWVRQAPGQGLEWMGEIDPGSDSIYYNENLEGRVTITADTSTSTAYMELSSLRSEDTAVYYCARYGYSRYDVRFVYWGQGTLVTVSS
VL: DIVMTQSPLSLPVTPGEPASISCRSSQSLVHSNGRTYLEWYLQKPGQSPQLLIYKVSNRISGVPDRFSGSGSGTDFTLKISRVEAEDVGVYYCFQGSHVPYTFGQGTKVEIK
In the case of B6, the “binding reaction [resonance signal (RU)]” value [2] is reported as “the lowest binding reaction”.
